{"source": "patent US20250369031A1", "about": "“METHODS OF DETERMINING CERULOPLASMIN ACTIVITY AND APPLICATIONS THEREOF” (ACADEMIA SINICA, priority 2022, published 2025)", "assay_type_in_all_cases": "biochemical", "key": {"serum oxidases [1]": {"tested_on": "serum oxidases", "assay": "Library screening with serum, ESI-MS monitoring of oxidized products", "details": "acetate buffer pH 5.0, 37° C., 1 h", "procedure": "The chemical library dissolved in DMSO individually to give stock concentrations of 1 mg/mL. Each chemical was placed in individual well and incubated with serum sample in acetate buffer (0.1M, pH 5.0) at 37° C. for 1 h. Additional DMSO was provided to inhibit oxidase activity. High-resolution ESI mass spectra (Bruker Daltonics spectrometer) was utilized to monitor the oxidized products.\nTo screen for suitable compounds as Cp substrates for MS analysis, an approach of combinatorial library screening in primary MS analysis was used to find out oxidized products and their relationship with initial substrates. Briefly, a platform for rapidly and conveniently screening various small molecules was established. In the chemical library collection as obtained, including natural products, synthetic compounds and heterocyclic molecules, each member was parallelly incubated with a certain small amount of serum for a desired reaction time. After quenching each enzyme reaction, analysis of the reaction products with ESI-MS was performed. Hits with reliable, major, and distinct oxidized product peaks in ESI-MS analysis were selected for further studies (FIG. 1)."}, "ceruloplasmin [2]": {"biological_target": "T1, ceruloplasmin (Homo sapiens, UniProt P00450)", "T1 sequence (P00450 20-1065)": "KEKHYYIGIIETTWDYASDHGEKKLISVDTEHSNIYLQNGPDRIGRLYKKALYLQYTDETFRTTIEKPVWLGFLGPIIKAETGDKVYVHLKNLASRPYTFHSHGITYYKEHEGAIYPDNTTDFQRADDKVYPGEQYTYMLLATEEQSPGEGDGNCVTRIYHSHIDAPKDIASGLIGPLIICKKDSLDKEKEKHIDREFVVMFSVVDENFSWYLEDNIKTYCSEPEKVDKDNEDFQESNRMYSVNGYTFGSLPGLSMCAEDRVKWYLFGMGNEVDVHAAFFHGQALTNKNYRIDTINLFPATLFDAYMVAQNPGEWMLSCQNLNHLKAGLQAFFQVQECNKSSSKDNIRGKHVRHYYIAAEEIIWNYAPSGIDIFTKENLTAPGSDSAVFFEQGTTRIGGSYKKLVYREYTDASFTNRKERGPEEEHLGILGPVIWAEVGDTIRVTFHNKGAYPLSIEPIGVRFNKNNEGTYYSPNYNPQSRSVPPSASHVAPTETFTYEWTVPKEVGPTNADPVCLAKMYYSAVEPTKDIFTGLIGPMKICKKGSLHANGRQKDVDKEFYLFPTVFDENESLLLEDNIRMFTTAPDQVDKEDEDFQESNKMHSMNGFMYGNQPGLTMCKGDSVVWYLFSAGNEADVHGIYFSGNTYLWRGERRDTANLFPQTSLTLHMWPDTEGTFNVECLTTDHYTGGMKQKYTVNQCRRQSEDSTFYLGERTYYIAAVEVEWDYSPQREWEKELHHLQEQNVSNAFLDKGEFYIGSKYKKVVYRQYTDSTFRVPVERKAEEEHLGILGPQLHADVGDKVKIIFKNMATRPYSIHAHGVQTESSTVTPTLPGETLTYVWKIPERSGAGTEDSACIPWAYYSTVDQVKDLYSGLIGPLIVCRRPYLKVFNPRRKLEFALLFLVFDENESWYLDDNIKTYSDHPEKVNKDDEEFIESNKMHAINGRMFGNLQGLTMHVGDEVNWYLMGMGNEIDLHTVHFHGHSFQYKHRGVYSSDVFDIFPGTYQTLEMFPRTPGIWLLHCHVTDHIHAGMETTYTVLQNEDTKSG", "assay": "Colorimetric methods for ceruloplasmin oxidative activity", "design": "Ceruloplasmin is made in the liver and then secreted into the blood; from tissue; host or cells: serum / plasma (normal adult, newborn; Cp-depleted serum by 100 kDa filtration as comparison)", "details": "serum volume small than 10 μL", "from_the_text": "FIGS. 8A and 8B show the limitations of detection by current methods known in the art. […] The specific activity units of Cp are not reliable in lower volume of serum.\nThe limitations of current methods and available commercial kits were described. In current method, the colorimetric methods using p-phenylenediamine (PPD) and o-dianisidine dihydrochloride (ODD) as substrates are used for quantification of ceruloplasmin oxidative activity. […] The activity of ceruloplasmin were positively correlated to absorbance. However, the correlation of absorbance and serum volume small than 10 μL was poor (FIG. 8)."}, "serum oxidases [3]": {"tested_on": "serum oxidases", "assay": "LC-MS/MS based serum oxidase activity assay", "quoted_text": "Samples were detected by LC-ESI-MS on a Velos Pro dual-pressure linear ion trap mass spectrometer (Thermo Fisher Scientific, San Jose, CA) equipped with an Ultimate 3000 RSLC system from Dionex (Dionex Corporation, Sunnyvale, CA), using a Xbridge C18 (HPLC column 1 mm×15 cm i.d., 3.5 μm particle size, 130 Å pore size). Briefly, the gradient employed was 50% buffer B at 5 min to 98% buffer B at 23 min with a flow rate of 50 μL/min, where buffer A was 0.1% formic acid/H2O and buffer B was 0.1% formic acid/acetonitrile. All spectra were acquired in the mass range m/z 200-2000. Electrospray voltage was maintained at 4.0 kV and capillary temperature was set at 275° C.\nThe stock solution of modified amino carbazoles (125 μM, 20 μL) were incubated with 5 μL of serum (estimate<10 nM of serum oxidases) in sodium acetate buffer (0.1M, pH 5.0, 5 μL) at 37° C. for 30 min. The serum oxidase oxidation was quenched by DMSO (90 μL), followed detection of LC-MS/MS.\nThe amount of the oxidized product was determined according to the area under the peak by integration. The specific Cp activity unit was calculated by the formula: Peak area of oxidized product MS2 ion/serum volume (μL).\nThe addition of DMSO was to quench the serum enzyme activity. After centrifugation, the supernatant of the mixture was detected by LC-MS/MS."}, "ceruloplasmin [4]": {"biological_target": "T1, ceruloplasmin", "assay": "Cp-depletion test (serum filtered to remove proteins larger than 100 kDa), LCMS", "design": "Ceruloplasmin is made in the liver and then secreted into the blood; from tissue; host or cells: serum / plasma (normal adult, newborn; Cp-depleted serum by 100 kDa filtration as comparison)", "details": "Cp-depleted serum 5 μL, 30 min, 37° C.", "procedure": "Normal adult serum and plasma were controls. After incubation, the DMSO quenched mixture were 100-folds diluted and detected by LCMS.\nThe Cp depletion serum was obtained by size selection method. Briefly, the centrifuge filter was applied in normal serum to eliminate those proteins larger than 100 kDa, including Cp (˜130 kDa)."}, "ceruloplasmin [5]": {"biological_target": "T1, ceruloplasmin", "assay": "Cp activity in newborn plasma, LCMS", "design": "Ceruloplasmin is made in the liver and then secreted into the blood; from tissue; host or cells: serum / plasma (normal adult, newborn; Cp-depleted serum by 100 kDa filtration as comparison)", "details": "without dilution", "from_the_text": "The DMSO quenched mixture were detected by LCMS without dilution."}, "ceruloplasmin [6]": {"biological_target": "T1, ceruloplasmin", "assay": "Ceruloplasmin spike-in experiment in normal serum, LC-MS/MS", "procedure": "To understand the relation between ceruloplasmin and serum oxidases and the reactivity of modified substrates and ceruloplasmin, spike-in experiment was performed. […] The assay was incubated at 37° C. for 30 mins, and quenching the reaction by DMSO. The final products were analyzed by LC-MS/MS."}}}
{"smiles": "CCCCn1c2ccccc2c2cc(N)ccc21", "note": "[ACK-1001, 9-buyl-9H-carbazol-3-amine]", "values": [{"measurement": "products generated when reacting with serum oxidases", "setting": "serum oxidases [1]", "value": "specific oxidized products"}]}
{"smiles": "COc1cc(-c2ccc(N)c(OC)c2)ccc1N.Cl.Cl", "note": "[o-dianisidine dihydrochloride (ODD), o-dianisidine dihydrochloride]", "values": [{"measurement": "correlation of absorbance and serum volume", "setting": "ceruloplasmin [2]", "value": "poor"}]}
{"smiles": "CCn1c2ccccc2c2cc(N)ccc21", "note": "[ACK-1006, 9-ethyl-9H-carbazol-3-amine]", "values": [{"measurement": "signal intensity of m/z transition of the oxidized product", "setting": "serum oxidases [3]; after 1000-fold dilution, serum less than 5 μL", "value": "> 10^3"}, {"measurement": "reaction time at which oxidized product reached highest amount", "setting": "serum oxidases [3]; time-dependent assay", "value": 30, "unit": "min"}, {"measurement": "oxidized product detected with Cp depleted serum", "setting": "ceruloplasmin [4]", "value": "trace amount"}, {"measurement": "LCMS signal of oxidized substrate in new born plasma", "setting": "ceruloplasmin [5]; new born plasma 5 μL, 30 min, 37° C.", "value": "> 10^5"}, {"measurement": "signal of oxidative substrate in CP-depletion plasma compared with newborn plasma", "setting": "ceruloplasmin [5]", "value": "significantly lower"}, {"measurement": "oxidation of substrate by recombinant ceruloplasmin", "setting": "ceruloplasmin [6]", "value": "could be oxidized by recombinant ceruloplasmin"}]}
{"smiles": "Nc1ccc(N)cc1", "note": "[p-phenylenediamine (PPD), p-phenylenediamine]", "values": [{"measurement": "correlation of absorbance and serum volume", "setting": "ceruloplasmin [2]", "value": "poor"}]}
{"smiles": "NCCc1c[nH]c2ccc(O)cc12", "note": "[ACK-1000, Serotonin (or 5-Hydroxytryptamine)]", "values": [{"measurement": "products generated when reacting with serum oxidases", "setting": "serum oxidases [1]", "value": "specific oxidized products"}]}
